Data from US20220370485A1, “COMPOUNDS AND METHODS FOR TREATING OR PREVENTING CARDIOVASCULAR DISEASES AND CONDITIONS” (Lexicon Pharmaceuticals, Inc., priority 2021, published 2022).
Where two headings read alike, the source gives them in different places.

Assays:
[1] = tested on: patients with type 2 diabetes mellitus recently hospitalized for worsening heart failure; settings: for Difference (95% CI) in least-squares mean change in KCCQ-12 score to month 4 / Difference (95% CI) in least-squares mean change in estimated GFR: sotagliflozin minus placebo
[2] = tested on: patients with type 2 diabetes mellitus, chronic kidney disease, and additional cardiovascular risk; settings: T2DM + CKD patients
[3] = T2DM + worsening heart failure, N = 608
[4] = T2DM + worsening heart failure, N = 608, listed as sotagliflozin
[5] = sotagliflozin vs. placebo, T2DM + worsening heart failure
[6] = sotagliflozin vs. placebo, T2DM + worsening heart failure, listed as sotagliflozin
[7] = sotagliflozin vs placebo, listed as sotagliflozin
[8] = sotagliflozin vs placebo, time-to-event analysis

CCOc1ccc(Cc2cc([C@@H]3O[C@H](SC)[C@@H](O)[C@H](O)[C@H]3O)ccc2Cl)cc1 [Sotagliflozin, (2S,3R,4R,5S,6R)-2-(4-chloro-3-(4-ethoxybenzyl)phenyl)-6-(methylthio)tetrahydro-2H-pyran-3,4,5-triol]
Deaths from any cause - rate [1, 3]: (13.5) events per 100 person-years of follow-up | Deaths from any cause - total no. of events [1, 3]: 65 | Deaths from cardiovascular causes - rate [1, 3]: (10.6) events per 100 person-years of follow-up | Deaths from cardiovascular causes - total no. of events [1, 3]: 51 | Deaths from cardiovascular causes, hospitalizations and urgent visits for heart failure, and events of heart failure during hospitalization - rate [1, 3]: (54.7) events per 100 person-years of follow-up | Deaths from cardiovascular causes, hospitalizations and urgent visits for heart failure, and events of heart failure during hospitalization - total no. of events [1, 3]: 263 | Deaths from cardiovascular causes, hospitalizations for heart failure, nonfatal myocardial infarctions, and nonfatal strokes - rate [1, 3]: (51.4) events per 100 person-years of follow-up | Deaths from cardiovascular causes, hospitalizations for heart failure, nonfatal myocardial infarctions, and nonfatal strokes - total no. of events [1, 3]: 247 | Hospitalizations and urgent visits for heart failure - rate [1, 3]: (40.4) events per 100 person-years of follow-up | Hospitalizations and urgent visits for heart failure - total no. of events [1, 3]: 194 | Least-squares mean change in estimated GFR ([1]; T2DM + worsening heart failure, N = 608, during follow-up): −0.34 ml/min/1.73 m^2 | Deaths from any cause - rate [1, 4]: 13.5 events per 100 person-years of | Deaths from cardiovascular causes - rate [1, 4]: 10.6 events per 100 person-years of | Least-squares mean change in KCCQ-12 score to month 4 ([1]; T2DM + worsening heart failure, N = 608, scores range from 0 to 100): 17.7 | Primary end point: deaths from cardiovascular causes and hospitalizations and urgent visits for heart failure - total no. of events ([1]; T2DM patients with recent worsening heart failure, 200 mg once daily increased to 400 mg, N = 608, median follow-up 9.0 months): 245 | Primary end point: deaths from cardiovascular causes and hospitalizations and urgent visits for heart failure - rate ([1]; T2DM patients with recent worsening heart failure, N = 608): (51.0) events per 100 person-years of follow-up | Primary end point: deaths from cardiovascular causes and hospitalizations and urgent visits for heart failure - rate ([1]; T2DM patients with recent worsening heart failure, N = 608, listed as sotagliflozin): 51.0 events per 100 person-years of | Absolute difference in rate of primary end-point events ([1]; sotagliflozin group vs placebo group (51.0 vs 76.3), 95% CI, 5.1 to 45.6): 25.3 events per 100 patient-years | Difference (95% CI) in least-squares mean change in KCCQ-12 score to month 4 [1]: 4.1 (1.3 to 7.0) points | Difference (95% CI) in least-squares mean change in estimated GFR [1]: −0.16 (−1.30 to 0.98) ml/min/1.73 m^2 | Difference (95% CI) in least-squares mean change in KCCQ-12 score to month 4 ([1]; listed as sotagliflozin): 4.1 points | Difference (95% CI) in least-squares mean change in estimated GFR ([1]; listed as sotagliflozin): −0.16 ml/min/1.73 m^2 | Total number of deaths from cardiovascular causes and hospitalizations for heart failure, excluding urgent visits for heart failure - hazard ratio ([1]; sotagliflozin vs. placebo, 95% CI, 0.53 to 0.88): 0.68 | Deaths from any cause - Hazard Ratio (95% CI) [1, 5]: 0.82 (0.59 to 1.14) | Deaths from cardiovascular causes - Hazard Ratio (95% CI) [1, 5]: 0.84 (0.58 to 1.22) | Deaths from cardiovascular causes, hospitalizations and urgent visits for heart failure, and events of heart failure during hospitalization - Hazard Ratio (95% CI) [1, 5]: 0.68 (0.54 to 0.86) | Deaths from cardiovascular causes, hospitalizations for heart failure, nonfatal myocardial infarctions, and nonfatal strokes - Hazard Ratio (95% CI) [1, 5]: 0.72 (0.56 to 0.92) | Hospitalizations and urgent visits for heart failure - Hazard Ratio (95% CI) [1, 5]: 0.64 (0.49 to 0.83) | Primary end point: deaths from cardiovascular causes and hospitalizations and urgent visits for heart failure - Hazard Ratio (95% CI) [1, 5]: 0.67 (0.52 to 0.85) | Deaths from any cause - Hazard Ratio (95% CI) [1, 6]: 0.82 | Deaths from cardiovascular causes - Hazard Ratio (95% CI) [1, 6]: 0.84 | Primary end point: deaths from cardiovascular causes and hospitalizations and urgent visits for heart failure - Hazard Ratio (95% CI) [1, 6]: 0.67 | Original primary end point: first occurrence of either death from cardiovascular causes or hospitalization for heart failure - hazard ratio ([1]; sotagliflozin vs. placebo, time-to-event analysis, 95% CI, 0.56 to 0.89): 0.71 | Subgroup analyses of the primary efficacy end point ([1]; subgroups by geographic region, LVEF (<50% or ≥50%), timing of first dose, sex, age, renal function (FIG. 4)): consistent treatment effect | Primary end point: total no. of deaths from cardiovascular causes, hospitalizations for HF, and urgent visits for HF - event rate ([2]; 200 mg once daily increased to 400 mg, N = 5292, median follow-up 16 months): 5.6 no. of events/100 patient-yr | Deaths from any cause - event rate ([2]; N = 5292): 3.5 no. of events/100 patient-yr | Deaths from any cause - no. of events ([2]; N = 5292): 246 | Deaths from cardiovascular causes - event rate ([2]; N = 5292): 2.2 no. of events/100 patient-yr | Deaths from cardiovascular causes - no. of events ([2]; N = 5292): 155 | First occurrence of a sustained decrease of ≥50% in the eGFR from baseline for ≥30 days, long-term dialysis, renal transplantation, or sustained eGFR of <15 ml/min/1.73 m2 for ≥30 days - event rate ([2]; N = 5292): 0.5 no. of events/100 patient-yr | First occurrence of a sustained decrease of ≥50% in the eGFR from baseline for ≥30 days, long-term dialysis, renal transplantation, or sustained eGFR of <15 ml/min/1.73 m2 for ≥30 days - no. of events ([2]; N = 5292): 37 | Primary end point: total no. of deaths from cardiovascular causes, hospitalizations for HF, and urgent visits for HF - no. of events ([2]; N = 5292): 400 | Total no. of deaths from cardiovascular causes, hospitalizations for HF, nonfatal myocardial infarctions, and nonfatal strokes - event rate ([2]; N = 5292): 7.6 no. of events/100 patient-yr | Total no. of deaths from cardiovascular causes, hospitalizations for HF, nonfatal myocardial infarctions, and nonfatal strokes - no. of events ([2]; N = 5292): 541 | Total no. of deaths from cardiovascular causes, hospitalizations for HF, urgent visits for HF, and events of HF during hospitalization - event rate ([2]; N = 5292): 6.4 no. of events/100 patient-yr | Total no. of deaths from cardiovascular causes, hospitalizations for HF, urgent visits for HF, and events of HF during hospitalization - no. of events ([2]; N = 5292): 453 | Total no. of deaths from cardiovascular causes, nonfatal myocardial infarctions, and nonfatal strokes - event rate ([2]; N = 5292): 4.8 no. of events/100 patient-yr | Total no. of deaths from cardiovascular causes, nonfatal myocardial infarctions, and nonfatal strokes - no. of events ([2]; N = 5292): 343 | Total no. of hospitalizations for HF and urgent visits for HF - event rate ([2]; N = 5292): 3.5 no. of events/100 patient-yr | Total no. of hospitalizations for HF and urgent visits for HF - no. of events ([2]; N = 5292): 245 | Deaths from any cause - Hazard Ratio (95% CI) ([2]; sotagliflozin vs placebo): 0.99 (0.83-1.18) | Deaths from cardiovascular causes - Hazard Ratio (95% CI) ([2]; sotagliflozin vs placebo): 0.90 (0.73-1.12) | Primary end point: total no. of deaths from cardiovascular causes, hospitalizations for HF, and urgent visits for HF - Hazard Ratio (95% CI) ([2]; sotagliflozin vs placebo): 0.74 (0.63-0.88) | Total no. of deaths from cardiovascular causes, hospitalizations for HF, nonfatal myocardial infarctions, and nonfatal strokes - Hazard Ratio (95% CI) ([2]; sotagliflozin vs placebo): 0.72 (0.63-0.83) | Total no. of deaths from cardiovascular causes, hospitalizations for HF, urgent visits for HF, and events of HF during hospitalization - Hazard Ratio (95% CI) ([2]; sotagliflozin vs placebo): 0.76 (0.64-0.89) | Total no. of deaths from cardiovascular causes, nonfatal myocardial infarctions, and nonfatal strokes - Hazard Ratio (95% CI) ([2]; sotagliflozin vs placebo): 0.77 (0.65-0.91) | Total no. of hospitalizations for HF and urgent visits for HF - Hazard Ratio (95% CI) ([2]; sotagliflozin vs placebo): 0.67 (0.55-0.82) | Deaths from cardiovascular causes - Hazard Ratio (95% CI) [2, 7]: 0.90 | Primary end point: total no. of deaths from cardiovascular causes, hospitalizations for HF, and urgent visits for HF - Hazard Ratio (95% CI) [2, 7]: 0.74 | Total no. of hospitalizations for HF and urgent visits for HF - Hazard Ratio (95% CI) [2, 7]: 0.67 | Original coprimary end point: first occurrence of death from cardiovascular causes or hospitalization for heart failure - hazard ratio [2, 8]: 0.77 | Original coprimary end point: first occurrence of death from cardiovascular causes, nonfatal myocardial infarction, or nonfatal stroke - hazard ratio [2, 8]: 0.84
